Assay results from patent publication US20070207984A1, “Cyclohexylamino Benzene, Pyridine, and Pyridazine Derivatives” (priority 2006, published 2007).

Key:
[1] = test system: PC-3 cell proliferation; test: Cell proliferation assay (WST-1), PC-3 cells; type: cell-based; settings: Homo sapiens, WST-1 optical density at 450 nm, growth vs DMSO (100%) and 10 μM Actinomycin D (0%), read-out: inhibitory activity against PC-3 cell proliferation (IC50 range)
Experimental: A panel of cancer cell lines was obtained from the DCTP Tumor Repository, National Cancer Institute (Frederick, Md.) or ATCC (Rockville, Md.). Cell cultures were maintained in Hyclone RPMI 1640 medium (Logan, Utah) supplemented with 10% fetal bovine serum and 20 mM HEPES buffer, final pH 7.2, at 37° C. with a 5% CO2 atmosphere. Cultures were maintained at sub-confluent densities. Human umbilical vein endothelial cells (HUVEC) were purchased from Clonetics, a division of Cambrex (Walkersville, Md.). Cultures were established from cryopreserved stocks using Clonetics EGM-2 medium supplemented with 20 mM HEPES, final pH 7.2, at 37° C. with a 5% CO2 atmosphere.
For proliferation assays, cells were seeded with the appropriate medium into 96 well plates at 1,000-2,500 cells per well, depending on the cell line, and were incubated overnight. The following day, test compound, DMSO solution (negative control), or Actinomycin D (positive control) was added to the appropriate wells as 10× concentrated stocks prepared in phosphate buffered saline. The cell plates were then incubated for an additional 2-5 days, depending on the cell line, to allow proliferation to occur. To measure cell density, 50 μL of WST-1 solution (Roche Applied Science, IN) diluted 1:5 in phosphate buffered saline was added to each well, and the cells incubated for an additional 1-5 hrs., again depending on the cell line. Optical density was determined for each well at […] using a Tecan GeniosPro plate reader (RTP, NC). The percentage of cell growth was determined by comparing the cell growth in the presence of test compounds to the cells treated with DMSO vehicle (control, 100% growth) and cells treated with Actinomycin D (10 μM, 0% growth).
Immediately after the WST-1 determination, the medium was removed from the PC-3, NCI-H460 and HUVEC cell lines, and the plates stored at −80° C. Using these assay plates, relative amounts of DNA in each well were determined using the Cyquant DNA assay kit from […] (Eugene, Oreg.) following the manufacturer's directions. Results for each compound treatment were compared to DMSO vehicle control (100%) and 10 μM Actinomycin D treated cells (0%).
Several exemplary compounds useful in the methods of the invention are listed below.

[2] = test system: HSP-90 (heat shock protein 90); test: Determination of affinity for HSP-90 (elution from purine affinity column); type: binding; parameters: key: A stands for very high; B for high; C for moderate; settings: purine affinity column loaded with organ tissue proteins; eluted with 20μM, 100 μM, and 500 μM of test compound; densitometry
Experimental: Affinity of test compounds for HSP-90 was determined as follows: Protein mixtures obtained from a variety of organ tissues (for example: spleen, liver and lung) were reversibly bound to a purine affinity column to capture purine-binding proteins, especially HSP-90. The purine affinity column was washed several times, and then eluted with 20μM, 100 μM, and 500 μM of test compound. Compounds of Formula I elute HP-90 in a dose-dependent manner vs. a control elution using dimethylsulfoxide. The elution profile of Formula I compounds was determined by 1-dimensional SDS polyacrylamide gel electrophoresis. Gels were stained with a fluorescent stain such as sypro ruby (a highly sensitive fluorescent protein stain that can readily detect less than 1 fmol of total protein, i.e., less than 0.04 ng for a 40 kDa protein) or silver nitrate. The gels were imaged using a standard flat bed gel imager and the amount of protein estimated by densitometry. The percent of HSP-90 protein eluted from the column at each concentration was determined and IC50 values were calculated from these estimates. The identity of a band containing HSP-90 was determined by protein sequencing using mass spectroscopy.
Compounds of the invention are inhibitors of HSP-90 (heat shock protein 90). Several exemplary compounds useful in the methods of the invention are listed below.

Row | SMILES | IC50 [1] | relative binding affinity to HSP-90 [2]
1 | CC1(C)CC(=O)c2c(C(F)F)nn(-c3ccc(C(N)=O)c(N[C@H]4CC[C@H](O)CC4)c3)c2C1 [drawing 85] | < 500 nM | 
2 | Cc1nn(-c2ccc(C(N)=O)c(NC3CCC(OC(=O)CCNC(=O)OC(C)(C)C)CC3)c2)c2c1C(=O)CC(C)(C)C2 (stereo not drawn) [drawing 88] | < 500 nM | 
3 | Cc1nn(-c2ccc(C#N)c(Br)c2)c2c1C(=O)CC(C)(C)C2 [drawing 89] | 5000 to 50000 nM | 
4 | CC1(C)CC(=O)c2c(C(F)F)nn(-c3ccc(C(N)=O)c(N[C@H]4CC[C@H](O)CC4)c3)c2C1 [drawing 91] |  | A
5 | Cc1nn(-c2ccc(C(N)=O)c(NC3CCC(OC(=O)CCNC(=O)OC(C)(C)C)CC3)c2)c2c1C(=O)CC(C)(C)C2 (stereo not drawn) [drawing 94] |  | A
6 | Cc1nn(-c2ccc(C#N)c(Br)c2)c2c1C(=O)CC(C)(C)C2 [drawing 95] |  | C

Further lines, results first:

Row | IC50 [1] | relative binding affinity to HSP-90 [2] | SMILES
7 | 500 to 5000 nM |  | Cc1nn(-c2ccc(C(N)=O)c(NC3CCC(OC(=O)CCN)CC3)c2)c2c1C(=O)CC(C)(C)C2 (stereo not drawn)
8 | < 500 nM |  | CC1(C)CC(=O)c2c(C(F)(F)F)nn(-c3ccc(C(N)=O)c(NC4CCC(OC(=O)[C@@H](N)CCCCN)CC4)c3)c2C1 (stereo partly drawn)
9 | < 500 nM |  | CC1(C)CC(=O)c2c(C(F)(F)F)nn(-c3ccc(C(N)=O)c(NC4CCC(OC(=O)CCNC(=O)[C@@H](N)CCCN)CC4)c3)c2C1 (stereo partly drawn)
10 |  | A | CS(=O)(=O)O.Cc1nn(-c2ccc(C(N)=O)c(NC3CCC(OC(=O)CCN)CC3)c2)c2c1C(=O)CC(C)(C)C2 (stereo not drawn)
11 |  | A | CC1(C)CC(=O)c2c(C(F)(F)F)nn(-c3ccc(C(N)=O)c(NC4CCC(OC(=O)[C@@H](N)CCCCN)CC4)c3)c2C1.CS(=O)(=O)O.CS(=O)(=O)O (stereo partly drawn)
12 |  | A | CC1(C)CC(=O)c2c(C(F)(F)F)nn(-c3ccc(C(N)=O)c(NC4CCC(OC(=O)CCNC(=O)[C@@H](N)CCCN)CC4)c3)c2C1.CS(=O)(=O)O.CS(=O)(=O)O (stereo partly drawn)
